Experimental data reported in patent EP4635944A1, “2-AZABICYCLO[3.1.1]HEPTANE COMPOUND” (Daiichi Sankyo Company, Limited, priority 2022, dated 2024).

What was measured:
[1] = target: T1, human OX2R (Homo sapiens, UniProt O43614); experiment: Evaluation of OX2R agonist activity (intracellular calcium, CHO-K1 cells with forced expression of human OX2R); format: cell-based; conditions: CHO-K1 cells expressing human OX2R; 100% = 5 µM of the reference compound; read-out: hOX2R EC50
T1 construct: host or cells: CHO-K1 (Chinese Hamster Ovary K1)
T1 sequence (O43614 1-444): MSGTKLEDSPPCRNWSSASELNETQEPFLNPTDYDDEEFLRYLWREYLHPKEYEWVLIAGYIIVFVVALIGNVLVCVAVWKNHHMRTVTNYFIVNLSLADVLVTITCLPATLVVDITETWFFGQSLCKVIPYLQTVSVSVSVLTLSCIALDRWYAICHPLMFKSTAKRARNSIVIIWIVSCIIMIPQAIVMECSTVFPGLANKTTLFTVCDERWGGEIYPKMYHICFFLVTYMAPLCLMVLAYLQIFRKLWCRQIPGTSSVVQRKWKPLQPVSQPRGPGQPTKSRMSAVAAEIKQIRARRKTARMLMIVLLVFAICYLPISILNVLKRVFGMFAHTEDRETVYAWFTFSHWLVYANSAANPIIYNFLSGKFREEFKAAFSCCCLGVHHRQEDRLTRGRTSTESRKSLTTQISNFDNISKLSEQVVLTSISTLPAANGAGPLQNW
How it was run: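 Cells seeded 7500/well, cultured 24 h, loaded with Fluo 4-AM (2.5 µg/mL final) plus probenecid for 30 min. Calcium response read as 480/540 nm excitation ratio; max–min signal 5–7 s after compound addition, normalized to buffer (0%) and 5 µM reference agonist (100%). EC50 from concentration series; 0.5% DMSO final.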

[2] = Evaluation of ERM production (GSH adduct detection in human liver microsomes); format: in vitro ADME; conditions: test compound 500 µM, human liver microsomes 2 mg/mL, GSH/SI-GSH, 37°C for 60 minutes; negative = no metabolite GSH adduct pair peak
Procedure: Evaluation of ERM production from OX2R agonist
The test compound (final concentration was 500 µM, dissolved in DMSO/acetonitrile = 1/9), pooled human liver microsomes (final concentration was 2 mg/mL), L-glutathione reduced (GSH, final concentration was 0.5 mM), potassium phosphate buffer (pH 7.4, final concentration was 100 mM), and stable isotope labeled GSH (SI-GSH, final concentration was 0.5 mM) were admixed and preincubated at 37°C for 3 minutes. Thereafter, a mixed solution of glucose-6-phosphate (final concentration was 25 mM), β-nicotinamide adenine dinucleotide phosphate (final concentration was 0.25 mM), glucose-6-phosphate dehydrogenase (final concentration was 2 U/mL), and magnesium chloride (final concentration was 10 mM) was added, and incubation was performed at 37°C for 60 minutes. After the incubation, the reaction was stopped by adding a 2-fold volume of acetonitrile. A portion of the supernatant after centrifugation (about 1200 × g, 4°C, 15 minutes) was injected into a liquid chromatograph quadrupole time-of-flight mass spectrometer (Q-Tof) for analysis. The mass number of metabolites, GSH adduct and SI-GSH adduct, predicted from the chemical structural formula of the test compound was calculated, and the presence of the corresponding peaks in the measurement sample was checked. Peaks with the same retention time and approximately equal peak area of the detected peaks of the metabolites, GSH adduct and SI-GSH adduct, were extracted as pair peaks. The presence of a pair peak determined to be a metabolite GSH adduct was considered positive for ERM production potential, whereas the absence of such a peak was considered negative for ERM production potential.

[3] = Evaluation of metabolic stability in human liver microsomes; format: in vitro ADME; conditions: for Human metabolic stability Residual ratio (%): test compound 1 µM, human liver microsomes 0.5 mg/mL, 30 minutes at 37°C; for metabolic stability compared to the corresponding compounds that were not deuterated: human liver microsomes, 30 minutes, deuterated at specific positions
Procedure: Evaluation of metabolic stability of OX2R agonist
The test compound (final concentration was 1 µM, dissolved in DMSO/acetonitrile = 1/99), pooled human liver microsomes (final concentration was 0.5 mg/mL), and sodium phosphate buffer (pH 7.4, final concentration was 100 mM) were admixed and preincubated at 37°C for 15 minutes. Thereafter, a mixed solution of glucose-6-phosphate (final concentration was 10 mM), glucose-6-phosphate dehydrogenase (final concentration was 1 U/mL), and magnesium chloride (final concentration was 3.3 mM) was added and a certain amount of the mixture was collected. Then, an acetonitrile/methanol mixed solution (75/25, v/v) containing a 4.5-fold volume of internal standard substances (final concentrations: phenacetin: 1 ng/mL, niflumic acid: 15 ng/mL, furosemide: 20 ng/mL) was added to stop the reaction (0 min sample). Subsequently, β-nicotinamide adenine dinucleotide phosphate (final concentration was 1 mM) was added, and after 30 minutes of incubation at 37°C, a certain amount of the mixture was collected, to which an acetonitrile/methanol mixed solution (75/25, v/v) containing a 4.5-fold volume of the internal standard substances was added to stop the reaction (30 min sample). For both samples, a portion of the supernatant after centrifugation (about 1200 × g, 4°C, 15 minutes) was injected into a liquid chromatograph tandem quadrupole mass spectrometer (LC-MS/MS) for analysis. The metabolic stability was evaluated by comparing the test compound/internal standard substance ratio of the 30 min sample with the 0 min sample and calculating the residual ratio of the test compound. […]

[4] = system: male C57BL/6J mice; experiment: Acceleration of locomotor activity (arousal effect in mice); format: in vivo; conditions: 10 mg/kg of body weight, orally; cumulative counts for one hour after administration; solvent administration group = 100%
Procedure: Acceleration of locomotor activity
Acceleration of locomotor activity in rodents can be an indicator of arousal. An experiment was carried out on the arousal effect of the test compound in mice, using the acceleration of locomotor activity as the indicator. For the experiment, male C57BL/6J mice (6 weeks old, THE JACKSON LABORATORY JAPAN, INC., 6 to 8 animals per group) were used. Mice were allowed to acclimate for 1 hour or longer in the rearing cage in the room where the measurement was to be performed, until the experiment. After the acclimation, the mice were placed in a locomotor activity measuring apparatus (the behavior analyzer SCANET-40 series, Melquest Ltd.) equipped with an infrared sensor to start the measurement. After 2 hours, either the solvent or the test compound (10 mg/kg of body weight) was orally administered, and the mice were immediately returned to the measuring apparatus and the measurement was further performed for 2 hours. The test compound was suspended in the 0.5 w/v% methylcellulose 400 solution (Wako Pure Chemical Industries, Ltd., Japan). The locomotor activity was counted every 5 minutes, and the cumulative counts for one hour after administration were calculated for each treatment group. The proportion of the locomotor activity of the test compound administration group to the solvent administration group whose locomotor activity was defined as 100% was calculated and shown in Table 2.

Compound | EC50 [1] [µM] | ERM production potential [2] | Human metabolic stability Residual ratio (%) [3] [%] | metabolic stability compared to the corresponding compounds that were not deuterated [3] | Locomotor activity (%) [4] [%]
C[C@@H](O)C(=O)N1C2CC(C2)[C@H](NS(C)(=O)=O)[C@@H]1Cc1cc(F)cc(-c2ccccc2)c1F [Example 58, N-{(3S,4S)-3-[(2,5-Difluoro[biphenyl]-3-yl)methyl]-2-[(2R)-2-hydroxypropanoyl]-2-azabicyclo[3.1.1]heptan-4-yl}methanesulfonamide] | 0.038 | negative | 34 | – | –
[2H]C([2H])([2H])[C@@]([2H])(O)C(=O)N1C2CC(C2)[C@H](NS(C)(=O)=O)[C@@H]1Cc1cccc(-c2ccccc2)c1F [Example 76, N-{(3S,4S)-3-[(2-Fluoro[biphenyl]-3-yl)methyl]-2-[(2R)-2-hydroxy(^2H4)propanoyl]-2-azabicyclo[3.1.1]heptan-4-yl}methanesulfonamide] | 0.018 | negative | 59 | improved metabolic stability | –
[2H]C([2H])([2H])[C@@]([2H])(O)C(=O)N1C2CC(F)(C2)[C@H](NS(C)(=O)=O)[C@@H]1Cc1cc(F)cc(-c2ccccc2)c1F [Example 87, N-{(3S,4R)-3-[(2,5-Difluoro[biphenyl]-3-yl)methyl]-5-fluoro-2-[(2R)-2-hydroxy(^2H4)propanoyl]-2-azabicyclo[3.1.1]heptan-4-yl}methanesulfonamide] | 0.03 | – | 70 | improved metabolic stability | 221
[2H]C([2H])([2H])[C@@]([2H])(O)C(=O)N1C2CC(C2)[C@H](NS(C)(=O)=O)[C@@H]1Cc1cc(F)cc(-c2ccccc2)c1F [Example 88, N-{(3S,4S)-3-[(2,5-Difluoro[biphenyl]-3-yl)methyl]-2-[(2R)-2-hydroxy(^2H4)propanoyl]-2-azabicyclo[3.1.1]heptan-4-yl}methanesulfonamide] | 0.043 | negative | 59 | improved metabolic stability | –
[2H]C([2H])([2H])[C@@]([2H])(O)C(=O)N1C2CC(F)(C2)[C@H](NS(C)(=O)=O)[C@@H]1Cc1cccc(-c2ccccc2)c1F [Example 89, N-{(3S,4R)-5-Fluoro-3-[(2-fluoro[biphenyl]-3-yl)methyl]-2-[(2R)-2-hydroxy(^2H4)propanoyl]-2-azabicyclo[3.1.1]heptan-4-yl}methanesulfonamide] | 0.018 | – | 75 | improved metabolic stability | 412
[2H]C([2H])([2H])[C@@]([2H])(O)C(=O)N1C2CC(C2)[C@H](NS(=O)(=O)CC)[C@@H]1Cc1cccc(-c2ccccc2)c1F [Example 94, N-{(3S,4S)-3-[(2-Fluoro[biphenyl]-3-yl)methyl]-2-[(2R)-2-hydroxy(^2H4)propanoyl]-2-azabicyclo[3.1.1]heptan-4-yl}ethanesulfonamide] | 0.022 | negative | – | – | –
[2H][C@](C)(O)C(=O)N1C2CC(C2)[C@H](NS(C)(=O)=O)[C@@H]1Cc1cccc(-c2ccccc2)c1F [Example 97, N-{(3S,4S)-3-[(2-Fluoro[biphenyl]-3-yl)methyl]-2-[(2R)-2-hydroxy(2-^2H)propanoyl]-2-azabicyclo[3.1.1]heptan-4-yl}methanesulfonamide] | 0.021 | negative | 57 | improved metabolic stability | 601
[2H][C@](C)(O)C(=O)N1C2CC(C2)[C@H](NS(C)(=O)=O)[C@@H]1Cc1cc(F)cc(-c2ccccc2)c1F [Example 98, N-{(3S,4S)-3-[(2,5-Difluoro[biphenyl]-3-yl)methyl]-2-[(2R)-2-hydroxy(2-^2H)propanoyl]-2-azabicyclo[3.1.1]heptan-4-yl}methanesulfonamide] | 0.036 | negative | 58 | improved metabolic stability | 281
